The assay concerns M. tuberculosis. It counts as cell-based, Mycobacterium tuberculosis (laboratory strain H37Rv). The conditions noted are these: for Average % Faster than Control: negative = slower; for Time to Positivity (Days.Hours) Experiment 2a / Time to Positivity (Days.Hours) Experiment 2b: diluted inoculum; for Time to Positivity (Days.Hours) Experiment 2a: technical repeat 2a, TB control (no peptide) 15.01; for Time to Positivity (Days.Hours) Experiment 2b: technical repeat 2b, TB control (no peptide) 15.20; for Time to Positivity (Days.Hours) Experiment 1a / Time to Positivity (Days.Hours) Experiment 1b: less diluted inoculum; for Time to Positivity (Days.Hours) Experiment 1a: technical repeat 1a, TB control (no peptide) 7.02; for Time to Positivity (Days.Hours) Experiment 1b: technical repeat 1b, TB control (no peptide) 7.01.

Where [1] appears, read: crude peptide 10 µg/mL, average of experiments 1 and 2.
[2] abbreviates: peptide 10 µg/mL, overall average of the averages of experiments 1a/1b and 2a/2b.

Like-named read-outs stand apart in the source and are kept apart here.

Consider RGGRLCYCRRRFCVCV [Protegrin 1/Pig *], for which the “Time to Positivity (Day.Hours) Experiment 1” value worked out at 10.23 Day.Hours and the “Time to Positivity (Day.Hours) Experiment 2” value is 6.22 Day.Hours. For the same substance, under setting [1], the “Average % Faster than Control” value is 15.3%.

As to “77: peptide from the authors' library (VRLRIRVAVIRA) [Peptide 77]”, under “peptide 10 µg/mL, MGIT”, the “Time to Positivity (Days.Hours) Experiment 2a” value was determined as 14.22 Days.Hours, the “Time to Positivity (Days.Hours) Experiment 2b” value is reported as 15.03 Days.Hours, the “Time to Positivity (Days.Hours) Experiment 1a” value is 6.14 Days.Hours and the “Time to Positivity (Days.Hours) Experiment 1b” value turned out to be 6.04 Days.Hours. In addition, under setting [2], the “Average % Faster than Control” value is 5.0%.

Turning to FLPLVTMLLGKLF [Temporin-1Vc/Frog], the “Time to Positivity (Day.Hours) Experiment 1” value is 11.12 Day.Hours and the “Time to Positivity (Day.Hours) Experiment 2” value is on record as 8.21 Day.Hours. In addition, the “Average % Faster than Control” value under setting [1] is on record as 2.5%.

For the substance GFKRIVQRIKDFLRNLV [GF-17/Human *], the “Time to Positivity (Day.Hours) Experiment 1” value is given as 10.02 Day.Hours and the “Time to Positivity (Day.Hours) Experiment 2” value came out at 8.07 Day.Hours. For the same substance, the “Average % Faster than Control” value under setting [1] is reported as 11.8%.

For FLSIIAKVLGSLF [Temporin 1Vb/Frog], the “Time to Positivity (Day.Hours) Experiment 1” value is on record as 11.10 Day.Hours and the “Time to Positivity (Day.Hours) Experiment 2” value was determined as 8.08 Day.Hours. Also, the “Average % Faster than Control” value under setting [1] was found to be 5.8%.

In the case of “IsCT2/Scorpion: naturally occurring peptide, APD3, scorpion (IFGAIWNGIKSLF)”, the “Time to Positivity (Day.Hours) Experiment 1” value was found to be 10.23 Day.Hours and the “Time to Positivity (Day.Hours) Experiment 2” value stood at 8.21 Day.Hours. The “Average % Faster than Control” value under setting [1] turned out to be 4.9%.

As for “76: peptide from the authors' library (VRWRIRVAVIRA) [Peptide 76]”, where the note is “peptide 10 µg/mL, MGIT”, the “Time to Positivity (Days.Hours) Experiment 2a” value is 16.08 Days.Hours, the “Time to Positivity (Days.Hours) Experiment 2b” value worked out at 16.14 Days.Hours, the “Time to Positivity (Days.Hours) Experiment 1a” value came to 6.13 Days.Hours and the “Time to Positivity (Days.Hours) Experiment 1b” value is recorded as 6.16 Days.Hours. Under setting [2], the “Average % Faster than Control” value is −1.4%.

FLPLIAGLIGKLF [Peptide B9/Frog]: the “Time to Positivity (Day.Hours) Experiment 1” value turned out to be 10.19 Day.Hours and the “Time to Positivity (Day.Hours) Experiment 2” value is reported as 8.01 Day.Hours. Besides, under setting [1], the “Average % Faster than Control” value is 10.0%.

Consider “HFLGTLVNLAKKIL [Temporin-1DRa/Frog, naturally occurring peptide, APD3, frog]”, for which the “Time to Positivity (Day.Hours) Experiment 1” value (crude peptide 10 µg/mL, MGIT, independent experiment 1, Control (TB only) 11.10, inoculum emulsified through G25 needle) is recorded as 10.18 Day.Hours. Moreover, where the note is “crude peptide 10 µg/mL, MGIT, independent experiment 2, Control (TB only) 9.10, inoculum emulsified through G25 needle”, the “Time to Positivity (Day.Hours) Experiment 2” value is 8.09 Day.Hours. Moreover, the “Average % Faster than Control” value under setting [1] came out at 8.5%.

With GFGMALKLLKKVL [Macropin 1/Wasp], the “Time to Positivity (Day.Hours) Experiment 1” value is reported as 10.12 Day.Hours and the “Time to Positivity (Day.Hours) Experiment 2” value came to 8.07 Day.Hours. In addition, the “Average % Faster than Control” value under setting [1] came out at 10.0%.

As for LSFLPKVIGVIGHLIH [Fallaxidin/Frog *], the “Time to Positivity (Day.Hours) Experiment 1” value amounted to 11.18 Day.Hours and the “Time to Positivity (Day.Hours) Experiment 2” value is recorded as 8.13 Day.Hours. For the same substance, the “Average % Faster than Control” value under setting [1] is on record as 3.2%.

Turning to “49: peptide from the authors' library (VRLRIRVRVIRK) [Peptide 49]”, where the note is “peptide 10 µg/mL, MGIT”, the “Time to Positivity (Days.Hours) Experiment 2a” value came out at 15.12 Days.Hours, the “Time to Positivity (Days.Hours) Experiment 2b” value turned out to be 15.02 Days.Hours, the “Time to Positivity (Days.Hours) Experiment 1a” value was found to be 5.22 Days.Hours and the “Time to Positivity (Days.Hours) Experiment 1b” value is 6.06 Days.Hours. The “Average % Faster than Control” value under setting [2] came out at 6.2%.

For the substance “63: peptide from the authors' library; same sequence as Indolicidin/Cow (ILPWKWPWWPWRR) [Peptide 63]”, under “peptide 10 µg/mL, MGIT”, the “Effect on TTP of MTB in words” value was “delayed TTP”, the “Time to Positivity (Days.Hours) Experiment 2a” value stood at 17.01 Days.Hours, the “Time to Positivity (Days.Hours) Experiment 2b” value is on record as 17.10 Days.Hours and the “Time to Positivity (Days.Hours) Experiment 1a” value is recorded as 6.22 Days.Hours. Also, under “peptide 10 µg/mL, MGIT”, the “Time to Positivity (Days.Hours) Experiment 1b” value turned out to be 6.22 Days.Hours. Also, the “Average % Faster than Control” value under setting [2] is listed as −5.5%.

Consider FIITGLVRGLTKLF [Temporin-LTb/Frog], for which the “Time to Positivity (Day.Hours) Experiment 1” value is on record as 11.07 Day.Hours and the “Time to Positivity (Day.Hours) Experiment 2” value is 8.06 Day.Hours. The “Average % Faster than Control” value under setting [1] was 6.7%.

With “RWCVYAYVRVRGVLVR [Arenicin 1/Annelid worm *]”, the “Time to Positivity (Day.Hours) Experiment 1” value was determined as 10.15 Day.Hours and the “Time to Positivity (Day.Hours) Experiment 2” value is 8.02 Day.Hours. Moreover, the “Average % Faster than Control” value under setting [1] worked out at 10.5%.

Consider “CM15/Bee venom: peptide from APD3, bee venom (KWKLFKKIGAVLKVL)”, for which the “Time to Positivity (Day.Hours) Experiment 1” value turned out to be 10.19 Day.Hours and the “Time to Positivity (Day.Hours) Experiment 2” value is 8.01 Day.Hours. Under setting [1], the “Average % Faster than Control” value was found to be 10.0%.

For “20: peptide from the authors' library (KWKWWWRKI) [Peptide 20]”, for the setting “peptide 10 µg/mL, MGIT”, the “Time to Positivity (Days.Hours) Experiment 2a” value is 14.01 Days.Hours, the “Time to Positivity (Days.Hours) Experiment 2b” value is 14.16 Days.Hours, the “Time to Positivity (Days.Hours) Experiment 1a” value amounted to 6.11 Days.Hours and the “Time to Positivity (Days.Hours) Experiment 1b” value was found to be 6.00 Days.Hours. Under setting [2], the “Average % Faster than Control” value was 8.3%.

As for “59: peptide from the authors' library (ILKWKRKWWKWRR) [Peptide 59]”, where the note is “peptide 10 µg/mL, MGIT”, the “Time to Positivity (Days.Hours) Experiment 2a” value came out at 13.19 Days.Hours, the “Time to Positivity (Days.Hours) Experiment 2b” value is listed as 12.22 Days.Hours, the “Time to Positivity (Days.Hours) Experiment 1a” value is listed as 5.17 Days.Hours and the “Time to Positivity (Days.Hours) Experiment 1b” value is 5.22 Days.Hours. For the same substance, the “Average % Faster than Control” value under setting [2] worked out at 14.5%.

As for “16: peptide from the authors' library (RLKRWWKFL) [Peptide 16]”, for the setting “peptide 10 µg/mL, MGIT”, the “Time to Positivity (Days.Hours) Experiment 2a” value was found to be 14.17 Days.Hours, the “Time to Positivity (Days.Hours) Experiment 2b” value is recorded as 14.20 Days.Hours, the “Time to Positivity (Days.Hours) Experiment 1a” value turned out to be 6.01 Days.Hours and the “Time to Positivity (Days.Hours) Experiment 1b” value came out at 5.22 Days.Hours. In addition, the “Average % Faster than Control” value under setting [2] stood at 8.6%.

Take ALKAALLAILKIVRVI [CM-3/Designed]: the “Time to Positivity (Day.Hours) Experiment 1” value came out at 11.04 Day.Hours and the “Time to Positivity (Day.Hours) Experiment 2” value was 8.03 Day.Hours. Also, the “Average % Faster than Control” value under setting [1] is 8.0%.

Take YQEPVLGPVRGPFPIIV [Casecidin 17/Cow]: the “Time to Positivity (Day.Hours) Experiment 1” value is 11.12 Day.Hours and the “Time to Positivity (Day.Hours) Experiment 2” value was 8.14 Day.Hours. For the same substance, the “Average % Faster than Control” value under setting [1] is 4.1%.

Regarding GRLCYCRGWICFCVGR [Protegrin 4/Pig *], the “Time to Positivity (Day.Hours) Experiment 1” value was determined as 11.11 Day.Hours and the “Time to Positivity (Day.Hours) Experiment 2” value stood at 8.01 Day.Hours. The “Average % Faster than Control” value under setting [1] was determined as 7.1%.

For the substance “3: peptide from the authors' library (WKWRVRVTI) [Peptide 3]”, for the setting “peptide 10 µg/mL, MGIT”, the “Time to Positivity (Days.Hours) Experiment 2a” value is reported as 14.22 Days.Hours, the “Time to Positivity (Days.Hours) Experiment 2b” value was found to be 15.02 Days.Hours, the “Time to Positivity (Days.Hours) Experiment 1a” value was determined as 6.08 Days.Hours and the “Time to Positivity (Days.Hours) Experiment 1b” value is on record as 6.17 Days.Hours. The “Average % Faster than Control” value under setting [2] was determined as 4.0%.
